Test [1] has as its target T1, GPX1 (Homo sapiens, UniProt P07203).
T1 construct: made in house
T1 sequence (P07203 1-203): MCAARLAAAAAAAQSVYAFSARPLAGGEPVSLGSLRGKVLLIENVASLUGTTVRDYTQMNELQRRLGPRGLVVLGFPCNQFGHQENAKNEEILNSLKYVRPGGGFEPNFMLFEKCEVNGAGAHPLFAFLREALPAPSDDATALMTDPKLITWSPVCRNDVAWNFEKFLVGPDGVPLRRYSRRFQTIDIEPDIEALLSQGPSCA
The test can be described thus: GPX1 activity assay, pure enzyme (NADPH consumption, cumene hydroperoxide). The test is classed as biochemical. Particulars: recombinant selenoprotein, pure enzyme system. On the procedure:
(§1) Recombinant human proteins—Recombinant human selenoprotein GPX and TXNRD isoenzymes as well as recombinant human GR were cloned, expressed, and purified as described previously [[26], [27], [28]].
Biochemical assays—GPX assays were run as previously described [[26], [27], [28]] in a clear medium-binding 96-well SpectraPlates (PerkinElmer). Briefly, 198 μL of 10 nM GPX1 or 200 nM GPX4 were incubated with 2 μL compounds or DMSO in TES buffer (50 mM Tris-HCl, 2 mM EDTA (pH 7.5), 150 mM NaCl) with BSA at room temperature for 30 min. Then, 40 μL of master mix (100 nM GR, 1 mM GSH, 0.5 mM NADPH in TES buffer) was added. To start the reaction, 10 μL of Cumene hydroperoxide ([0.5 mM] in 50% EtOH) was then added. Absorbance at 340 nm was measured using a Tecan Infinite® M Nano microplate reader every 20 s for 30 min. Four replicates were run, unless otherwise stated.

Test [2] addresses T2, TXNRD1 (Homo sapiens, UniProt Q16881).
T2 construct: made in house
T2 sequence (Q16881 1-499 isoform Q16881-5): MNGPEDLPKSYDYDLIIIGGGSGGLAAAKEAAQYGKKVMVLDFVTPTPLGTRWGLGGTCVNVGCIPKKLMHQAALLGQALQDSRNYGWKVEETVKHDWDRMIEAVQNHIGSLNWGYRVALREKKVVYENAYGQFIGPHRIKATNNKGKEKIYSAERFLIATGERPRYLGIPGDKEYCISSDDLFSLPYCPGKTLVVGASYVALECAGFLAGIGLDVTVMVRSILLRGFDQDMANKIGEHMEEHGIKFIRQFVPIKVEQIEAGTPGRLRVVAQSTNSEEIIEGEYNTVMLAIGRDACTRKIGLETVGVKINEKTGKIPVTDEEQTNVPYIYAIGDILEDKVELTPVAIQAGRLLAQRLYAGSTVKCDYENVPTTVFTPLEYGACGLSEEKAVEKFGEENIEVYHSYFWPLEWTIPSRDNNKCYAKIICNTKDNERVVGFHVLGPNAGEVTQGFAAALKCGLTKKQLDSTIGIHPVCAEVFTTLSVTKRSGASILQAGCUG
The test can be described thus: TXNRD1 orthogonal assays (selenite reduction, DTNB reduction; Extended Data Fig. 2). The test is classed as biochemical. Particulars: for TXNRD1 remaining activity: 5 µM compound; for Inhibition of TXNRD1 without NADPH pre-reduction: incubated with compound in the absence of NADPH, then assayed; for pIC50: orthogonal assays, Extended Data Fig. 2A and 2B, read-out: curve-fit IC50 TXNRD1. How it is done: (§2) TXNRD1 selenite and DTNB assays were run as previously described [[26], [27], [28]]. Dose-response curves and IC50s were generated using Excel and GraphPad Prism. Briefly, initial slopes of NADPH consumption were normalized to DMSO controls and IC50s were calculated using log(inhibitor) vs. response—Variable slope (four parameters).
(§3) Supplementary Data Extended Data Set
(§4) (Extended Data Fig. 2A, left panel). Measuring inhibition of TXNRD1 activity, as a complement to the analyses shown in the main text of this article, we also assessed this using two orthogonal approaches: 1. by the measurement of NADPH consumption coupled to direct selenite reduction of TXNRD1, either through the decrease in absorbance at 340 nm or decrease in its fluorescence, and 2. measuring TXNRD1-catalyzed DTNB reduction based upon quantification of TNB- anions absorbing at 412 nm as formed upon TXNRD1-catalyzed reduction of the disulfide in DTNB. Using these assays, we could confirm that the RSL3 inhibition of TXNRD1 was not an artifact due to specific assay conditions, with both RSL3 and ML162 showing complete inhibition of TXNRD1 at the higher end of the concentrations assessed here (2.8 ± 0.9% and 5.8 ± 0.9% remaining activity with just 5 µM of RSL3 and […]
(§5) ML162 (Extended Data Fig. 2A, middle and right panels, and 2B). […]
any inhibition of TXNRD1 in any of the assays. […]
(§6) µM, respectively (Extended Data Fig. 2B). Like with TRi-1 and TRi-2, inhibition of both TXNRD1 and TXNRD2 by RSL3 and ML162 was essentially dependent on pre-reduction of the enzyme by NADPH in order to yield potent and complete inactivation. Both compounds […]
(§7) ML162 in the absence of NADPH and subsequently assayed for activity; however, this could also be due to carry-over of the compounds to the NADPH dependent enzyme activity assay.
(§8) Because the reduction step with NADPH reduces a selenenylsulfide at the C-terminal active […]
(§9) of the selenolate at the C-terminal active site of the NADPH-reduced enzyme. That some […]
(§10) compounds might also bind some other additional site(s) in the enzyme. That notion is further strengthened by the fact that thermostability of TXNRD1 was also affected at higher concentrations of compounds when incubated with the enzyme in the absence of NADPH (see […]
(§11) dose-response curve fit to the average of n = 3 technical replicates. […]
(§12) well (middle left panel) and 1536-well format (not shown), as well as a DTNB assay (middle […]
TXNRD2 by RSL3 (left panel), ML162 (middle left panel), TRi-1 (middle right panel), and TRi-2 (right panel) are modulated by NADPH pre-treatment; Data are presented as mean ± s.d.; Four-parameter dose-response curve fit to the average of n = 3 technical replicates (n = 2

Test [3] deals with T3, TXNRD1 (Homo sapiens, UniProt Q16881).
T3 construct: RX1 probe that specifically reports upon TXNRD1 enzymatic activity in live cells; endogenous in cells; host or cells: A549
T3 sequence (Q16881 151-649 limits assumed): T2 sequence (Q16881 1-499 isoform Q16881-5)
The test can be described thus: Cellular TXNRD1 assay with RX1 probe in A549 cells. The test is classed as cell-based. The settings on record: for Suppression of RX1 signal (cellular TXNRD1 activity): A549, 100 nM sodium selenite, 12 h and 24 h, seen at 0.5 μM or higher; for Effect on cellular TXNRD1 activity (RX1) at 4 h: A549, 4 h incubation, RSL3 and ML162 at 1 μM or higher.
Description: Cellular TXNRD1 assay—20,000 or 10,000 A549 cells (for 4 h or 12 h and 24 h compound incubation respectively) were seeded in 96-well plates (microplates, 96 well, F-bottom, black, clear bottom, ViewPlateTM-96 F TC, PerkinElmer), in a total volume of 100 μL full DMEM (supplemented with 10% FBS and 100 nM Na2SeO3). […] The cells were subsequently incubated for the respective mentioned time, washed once with full DMEM and fresh, full DMEM, containing 75 μM RX1 and 0.75% DMSO, was added and the first fluorescent measurement was conducted immediately (timepoint = 0) using a Tecan Infinite M200 plate reader (ex/em 355/520). To follow the kinetic activation of RX1, a fluorescent measurement was done every hour for 6 h. Between measurements, cells were stored at 37 °C and 5% CO2. As a control, cells treated with compounds, but not with RX1, just the respective DMSO content, were used for background fluorescent. To determine how the cells were viable throughout the RX1 assay, the control cells were used for a viability measurement, using CellTiter-Glo® Luminescent Cell Viability Assay, after the final fluorescent measurement. For final data analysis, raw data was processed using Microsoft Excel and GraphPad Prism. In brief, the slope of the activated RX1 fluorescence increase was in each case calculated and normalized, using the viability measurement of the control cells.

The target in test [4] is T4, TXNRD2 (Homo sapiens, UniProt Q9NNW7).
T4 construct: made in house
T4 sequence (Q9NNW7 37-524): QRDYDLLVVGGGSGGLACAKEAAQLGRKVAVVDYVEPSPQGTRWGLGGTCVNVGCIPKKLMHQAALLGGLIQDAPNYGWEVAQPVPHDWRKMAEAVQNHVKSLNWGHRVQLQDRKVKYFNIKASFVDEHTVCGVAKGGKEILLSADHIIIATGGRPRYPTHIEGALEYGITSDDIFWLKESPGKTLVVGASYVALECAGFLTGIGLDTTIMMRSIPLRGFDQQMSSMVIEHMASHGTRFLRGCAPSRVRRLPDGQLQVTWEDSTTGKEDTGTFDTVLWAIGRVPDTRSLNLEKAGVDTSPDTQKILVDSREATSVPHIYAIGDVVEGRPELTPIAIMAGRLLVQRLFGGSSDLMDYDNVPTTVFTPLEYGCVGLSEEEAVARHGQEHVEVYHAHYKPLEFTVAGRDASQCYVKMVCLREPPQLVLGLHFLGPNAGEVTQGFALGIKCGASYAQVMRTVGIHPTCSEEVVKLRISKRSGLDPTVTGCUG
The test can be described thus: TXNRD2 inhibition assay (Extended Data Fig. 2B). The test is classed as biochemical. The settings on record: for pIC50: NADPH pre-reduced enzyme; for TXNRD2 activity remaining: at the top concentration; for Inhibition of TXNRD2 without NADPH pre-reduction: enzyme not pre-reduced with NADPH.
Text: as §3, §4, §5
any inhibition of TXNRD1 in any of the assays.
The mitochondrial TXNRD2 isoenzyme was also assessed, towards which both RSL3 and […]
concentration, RSL3 inhibited TXNRD2 down to 36.2 ± 8.6% activity, and ML162 to 35.1 ± […]
as §6, §7, §8, §9, §10, §11, §12
TXNRD2 by RSL3 (left panel), ML162 (middle left panel), TRi-1 (middle right panel), and TRi-2 (right panel) are modulated by NADPH pre-treatment; Data are presented as mean ± s.d.; Four-parameter dose-response curve fit to the average of n = 3 technical replicates (n = 2 […]

Test [5] deals with T2, TXNRD1. The test can be described thus: TXNRD1 activity assay, pure enzyme (Fig. 1A). The test is classed as biochemical. Particulars: recombinant TXNRD1, Fig. 1A assay conditions; read-out: IC50 TXNRD1 inhibition. How it is done: as §1, §2

The record followed here is publication PMC10149367, “The ferroptosis inducing compounds RSL3 and ML162 are not direct inhibitors of GPX4 but of TXNRD1” (Redox Biology, 2023).

pIC50: −log10 of the molar value. Entries after “also recorded” stand apart in the source; their conditions may differ.

In the case of `COc1ccc(N(C(=O)CCl)C(C(=O)NCCc2ccccc2)c2cccs2)cc1Cl` (centres unmarked) [ML162], the “Inhibition of GPX1” value in test [1] is recorded as “neither RSL3, ML162, nor ML210 inhibited either GPX isoenzyme”. Further, in test [2], the TXNRD1 remaining activity is listed as 5.8 ± 0.9%, the “Inhibition of TXNRD1 without NADPH pre-reduction” value is “some inhibition” and the pIC50 was 6.29. In addition, in test [3], the “Suppression of RX1 signal (cellular TXNRD1 activity)” value is given as “clear dose-dependent suppression in RX1 signal” and the “Effect on cellular TXNRD1 activity (RX1) at 4 h” value is on record as “sufficient for a suppression of the RX1 signal”. Moreover, in test [4], the pIC50 is 5.40, the TXNRD2 activity remaining is given as 35.1 ± 1.3% and the “Inhibition of TXNRD2 without NADPH pre-reduction” value is “completely lost inhibitory activity”. Also, in test [5], the pIC50 is 4.71.
For the compound `COC(=O)c1ccc([C@@H]2c3[nH]c4ccccc4c3C[C@@H](C(=O)OC)N2C(=O)CCl)cc1` [RSL3, (1S,3R)RSL3], the “Inhibition of GPX1” value in test [1] is listed as “neither RSL3, ML162, nor ML210 inhibited either GPX isoenzyme; also recorded: did not inhibit GPX1 or GR”. Moreover, in test [2], the TXNRD1 remaining activity is 2.8 ± 0.9%, the “Inhibition of TXNRD1 without NADPH pre-reduction” value is on record as “some inhibition” and the pIC50 was 6.13. For the same compound, in test [3], the “Suppression of RX1 signal (cellular TXNRD1 activity)” value is recorded as “clear dose-dependent suppression in RX1 signal” and the “Effect on cellular TXNRD1 activity (RX1) at 4 h” value is “sufficient for a suppression of the RX1 signal”. Besides, in test [4], the pIC50 is 5.04, the TXNRD2 activity remaining came to 36.2 ± 8.6% and the “Inhibition of TXNRD2 without NADPH pre-reduction” value is “completely lost inhibitory activity”. For the same compound, in test [5], the pIC50 is 5.10.
